In US7345070B2, “Peroxisome proliferator activated receptor agonists” (Eli Lilly and Company, priority 2000, dated 2008):
pIC50: −log10 of the molar value.

The compounds below were run against T1, huPPARγ (Homo sapiens, UniProt P37231) (assay: DNA-dependent binding (ABCD binding) using SPA technology, huPPARγ). Conditions: SPA displacement of tritium-labeled PPARγ agonist radioligand.
T1 sequence (P37231 1-505): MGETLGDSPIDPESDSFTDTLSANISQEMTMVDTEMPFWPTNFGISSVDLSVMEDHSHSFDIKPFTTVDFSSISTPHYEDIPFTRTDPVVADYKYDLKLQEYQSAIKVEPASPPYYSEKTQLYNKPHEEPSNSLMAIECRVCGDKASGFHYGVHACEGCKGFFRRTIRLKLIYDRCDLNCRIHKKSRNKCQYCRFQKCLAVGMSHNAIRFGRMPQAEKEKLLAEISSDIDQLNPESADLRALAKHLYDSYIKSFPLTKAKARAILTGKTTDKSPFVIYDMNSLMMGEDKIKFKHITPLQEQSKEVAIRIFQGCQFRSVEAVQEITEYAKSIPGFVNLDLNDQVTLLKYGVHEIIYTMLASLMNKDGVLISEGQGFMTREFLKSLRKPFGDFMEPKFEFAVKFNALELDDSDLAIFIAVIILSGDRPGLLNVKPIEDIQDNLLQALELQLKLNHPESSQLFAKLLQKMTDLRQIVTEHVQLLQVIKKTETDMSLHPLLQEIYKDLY
T1 sequence (P19793 1-462 partner): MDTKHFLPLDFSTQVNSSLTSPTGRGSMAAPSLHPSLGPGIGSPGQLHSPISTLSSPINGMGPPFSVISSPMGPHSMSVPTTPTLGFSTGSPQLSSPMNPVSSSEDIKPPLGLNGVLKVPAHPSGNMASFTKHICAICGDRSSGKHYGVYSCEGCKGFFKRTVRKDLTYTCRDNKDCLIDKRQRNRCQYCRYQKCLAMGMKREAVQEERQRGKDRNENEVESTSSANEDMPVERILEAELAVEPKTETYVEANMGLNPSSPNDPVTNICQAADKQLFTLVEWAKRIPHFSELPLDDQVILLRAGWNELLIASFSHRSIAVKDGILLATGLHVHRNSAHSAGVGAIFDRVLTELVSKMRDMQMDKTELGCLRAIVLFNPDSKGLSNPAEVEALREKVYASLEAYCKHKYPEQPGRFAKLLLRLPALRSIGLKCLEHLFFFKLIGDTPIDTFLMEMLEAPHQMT
Description: DNA-dependent binding (ABCD binding) was carried out using SPA technology with PPAR receptors. Tritium-labeled PPARα and PPARγ agonists were used as radioligands for generating displacement curves and IC50 values with compounds of the invention. Cotransfection assays were carried out in CV-1 cells. The reporter plasmid contained an acylCoA oxidase (AOX) PPRE and TK promoter upstream of the luciferase reporter cDNA. Appropriate PPARs and RXRα were constitutively expressed using plasmids containing the CMV promoter. […] In order to eliminate such interference, a GAL4 chimeric system was used in which the DNA binding domain of the transfected PPAR was replaced by that of GAL4, and the GAL4 response element was utilized in place of the AOX PPRE. Cotransfection efficacy was determined relative to PPARα agonist and PPARγ agonist reference molecules. Efficacies were determined by computer fit to a concentration-response curve, or in some cases at a single high concentration of agonist (10 μM). For binding or cotransfection studies with receptors other than PPARs, similar assays were carried out using appropriate ligands, receptors, reporter constructs, etc., for that particular receptor.
These studies were carried out to evaluate the ability of compounds of the invention to bind to and/or activate various nuclear transcription factors, particularly huPPARα (“hu” indicates “human”) and huPPARγ. These studies provide in vitro data concerning efficacy and selectivity of compounds of the invention. Furthermore, binding and cotransfection data for compounds of the invention were compared with corresponding data for marketed compounds that act on either huPPARα or huPPARγ.

`Cc1oc(-c2ccccc2)nc1CCOc1ccc(CC(C)(Oc2ccc3c(c2)OCO3)C(=O)O)cc1` (stereo not shown) [Example 78, 2-(Benzo[1,3]dioxol-5-yloxy)-2-methyl-3-{4-[2-(5-methyl-2-phenyl-oxazol-4-yl)-ethoxy]-phenyl}-propionic acid] and `Cc1oc(C2CCCCC2)nc1CCOc1ccc(CC(C)(Oc2ccc3c(c2)OCO3)C(=O)O)cc1` (stereo not shown) [Example 80, 2-(Benzo[1,3]dioxol-5-yloxy)-3-{4-[2-(2-cyclohexyl-5-methyl-oxazol-4-yl)-ethoxy]-phenyl}-2-methyl-propionic acid] are within 0.2 log units of each other in pIC50: 7.05 for the first, 7.10 for the second.

`Cc1oc(CCc2ccccc2)nc1CCOc1ccc(C[C@](C)(Oc2ccccc2)C(=O)O)cc1` [Example 86, (S)-2-Methyl-3-{4-[2-(5-methyl-2-phenethyl-oxazol-4-yl)-ethoxy]-phenyl}-2-phenoxy-propionic acid] and `Cc1oc(-c2ccccc2)nc1CCCc1ccc(CC(C)(Oc2ccccc2)C(=O)O)s1` (stereo not shown) [Example 91, 2-Methyl-3-{5-[3-(5-methyl-2-phenyl-oxazol-4-yl)-propyl]-thiophen-2-yl}-2-phenoxy-propionic acid] are within 0.2 log units of each other in pIC50: 7.14 for the first, 7.29 for the second.
